In publication PMC11845477, “Exploring the principles behind antibiotics with limited resistance” (Nature Communications, 2025):
Read-outs that look alike come from different tables or passages of the source.

Assays:
[1] = test system: K. pneumoniae ATCC 10031 (SEN) and K. pneumoniae ATCC 700603 (MDR); experiment: Frequency-of-resistance (FoR) assay, relative MIC of mutants; format: cell-based, Klebsiella pneumoniae; settings: for MIC: Klebsiella pneumoniae
Method: (§1) The susceptibility of antibiotics to resistance development was evaluated in two strains of each bacterial species: a multidrug-resistant strain and an antibiotic-sensitive strain of Escherichia coli, Klebsiella pneumoniae, Acinetobacter baumannii, and Pseudomonas aeruginosa. To explore first-step resistance, we previously used a standard protocol for spontaneous frequency-of-resistance analysis (FoR assay) at multiple concentrations of each antibiotic[10],[28],[31]–[33]. […] For all other combinations, approximately 10^10 bacterial cells were exposed to one of each antibiotic on agar plates for two days at concentrations where the given strain is susceptible. We examined resistance levels by contrasting the minimum inhibitory concentration (MICs) of the mutated strains to the original wild-type bacterial strain (i.e., relative MIC).
(§2) To estimate the frequency of spontaneous mutations that confer resistance in a microbial population, we conducted a frequency of resistance (FoR) assay following established protocols[10],[31]–[33]. […] Prior to plating, bacteria were grown overnight in MHB medium at 37 °C and 250 RPM, then centrifuged and washed in MHB. All experiments were performed in triplicate, and plates were incubated at 37 °C for 48 hours. Total colony-forming units (CFUs) were determined by plating appropriate dilutions onto antibiotic-free MHB agar. Resistance frequencies were calculated by dividing the number of resistant colonies by the initial viable cell count. From the plates with the highest antibiotic concentration, ten colonies were selected for MIC determination and whole-genome sequencing.
(§3) A robotic liquid handling system was used to automatically prepare a 11 to 16-step serial dilution in 384-well microtiter plates (Greiner). A final concentration of 5 × 10^5 bacterial cells per mL were inoculated into each well containing 60 µL MHB medium. Bacterial cultures were incubated at 37 °C with continuous shaking (Infors shaker, 900 rpm with 3 mm throw) for 18 hours (2 replicates from each). Cell growth was monitored by measuring the optical density (OD600 values, using Biotek Synergy microplate reader). MIC was defined as the antibiotic concentration of complete growth inhibition (i.e., OD600 < 0.05). Relative MIC was calculated as follows:1 relativeMIC=MICevolved/MICancestor […]
(§4) Supplementary Figure 3. Resistance levels following the frequency of resistance assay across bacterial strains. The level of resistance was measured as the fold change in relative MIC between evolved and ancestral strains. Data are grouped by bacterial strain (A. baumannii (AB), E. coli (EC), K. pneumoniae (KP), and P. aeruginosa (PA)) and categorized as either multidrug-resistant (MDR) or sensitive (SEN). Each data point represents a laboratory evolved line, and boxplots show the median, first and third quartiles, with whiskers indicating the 5th and 95th percentiles. […]
(§5) analysis was performed using two-sided Dunn’s post-hoc test with Benjamini-Hochberg correction for multiple comparisons (**/ * indicates p < 0.01/ 0.05). For detailed information on antibiotic and bacterial species, see Supplementary Table 1. For mode of action groups, refer to Table 1. Source data are provided as a Source Data file.

[2] = test system: A. baumannii ATCC 17978 (SEN) and A. baumannii ATCC BAA-1605 (MDR); experiment: Adaptive laboratory evolution (ALE), relative MIC of evolved lines; format: cell-based, Acinetobacter baumannii; settings: for Relative MIC (log10): AB-SEN (Acinetobacter baumannii ATCC 17978)
From the text: Using the same set of bacterial strains, we initiated adaptive laboratory evolution with the aim to maximize the level of antibiotic resistance in the populations achieved during a longer, but fixed time period.
An established protocol for adaptive laboratory evolution[46],[73] was followed to propagate populations with the highest resistance levels. Starting with an antibiotic concentration that caused approximately 50% growth inhibition, ten parallel populations for each antibiotic-ancestor strain combination were grown for 72 hours at 37 °C with continuous shaking (300 RPM). MHB broth medium was used unless stated otherwise. After each incubation, 20 µl of each culture was transferred to four new wells containing fresh medium with increasing antibiotic concentrations (0.5×, 1×, 1.5×, and 2.5× the previous concentration) in a chessboard layout to monitor potential cross-contamination. Growth was monitored by measuring OD600 using a Biotek Synergy 2 microplate reader, and only populations grown in the highest drug concentration with an OD600 > 0.2 were transferred further.
as §3
Supplementary Figure 4. Resistance levels following adaptive laboratory evolution across bacterial strains. The level of resistance was measured as the fold change in relative MIC between evolved and ancestral strains after ~60 days of adaptive laboratory evolution. Data are grouped by bacterial strain (A. baumannii (AB), E. coli (EC), K. pneumoniae (KP), and P. aeruginosa (PA)) and categorized as either multidrug-resistant (MDR) or sensitive (SEN). Each data point represents a laboratory evolved line, and boxplots show the median, first and third quartiles, with whiskers indicating the 5th and 95th percentiles.
as §5, with “Statistical analysis” for “analysis”, “(****/ ***/ **/” for “(**/”, “< 0.0001/ 0.001/” for “<”

[3] = test system: E. coli ATCC 25922 (SEN) and E. coli NCTC13846 (MDR); experiment: Frequency-of-resistance (FoR) assay, relative MIC of mutants; format: cell-based, Escherichia coli; settings: for Relative MIC / MIC of evolved line: Escherichia coli ATCC 25922 (EC-SEN); for MIC: Escherichia coli
Method: as §1, §2, §3, §4, §5

[4] = Klebsiella pneumoniae ATCC 10031 (KP-SEN), evolved line 1 versus ancestor
[5] = Klebsiella pneumoniae ATCC 10031 (KP-SEN), evolved line 2 versus ancestor
[6] = Klebsiella pneumoniae ATCC 10031 (KP-SEN), evolved line 3 versus ancestor
[7] = read-out: MIC of evolved line, Klebsiella pneumoniae ATCC 10031 (KP-SEN), evolved line 1
[8] = read-out: MIC of evolved line, Klebsiella pneumoniae ATCC 10031 (KP-SEN), evolved line 2
[9] = read-out: MIC of evolved line, Klebsiella pneumoniae ATCC 10031 (KP-SEN), evolved line 3
[10] = read-out: MIC of evolved line, Klebsiella pneumoniae ATCC 700603 (KP-MDR), evolved line 1
[11] = read-out: MIC of evolved line, Klebsiella pneumoniae ATCC 700603 (KP-MDR), evolved line 2
[12] = read-out: MIC of evolved line, Klebsiella pneumoniae ATCC 700603 (KP-MDR), evolved line 3
[13] = AB-SEN (ATCC 17978), evolved line 1, MIC of evolved line / MIC of ancestor
[14] = AB-SEN (ATCC 17978), evolved line 2, MIC of evolved line / MIC of ancestor
[15] = AB-SEN (ATCC 17978), evolved line 3, MIC of evolved line / MIC of ancestor
[16] = AB-SEN (ATCC 17978), evolved line 4, MIC of evolved line / MIC of ancestor
[17] = AB-SEN (ATCC 17978), evolved line 5, MIC of evolved line / MIC of ancestor
[18] = AB-SEN (ATCC 17978), evolved line 6, MIC of evolved line / MIC of ancestor
[19] = AB-SEN (ATCC 17978), evolved line 7, MIC of evolved line / MIC of ancestor
[20] = AB-SEN (ATCC 17978), evolved line 8, MIC of evolved line / MIC of ancestor
[21] = AB-SEN (ATCC 17978), evolved line 9, MIC of evolved line / MIC of ancestor
[22] = AB-SEN (ATCC 17978), evolved line 10, MIC of evolved line / MIC of ancestor
[23] = evolved line 2 adapted to the named antibiotic
[24] = evolved line 4 adapted to the named antibiotic
[25] = evolved line 5 adapted to the named antibiotic
[26] = Acinetobacter baumannii ATCC 17978 (AB-SEN), evolved line 1
[27] = Acinetobacter baumannii ATCC 17978 (AB-SEN), evolved line 2
[28] = Acinetobacter baumannii ATCC 17978 (AB-SEN), evolved line 3
[29] = Acinetobacter baumannii ATCC 17978 (AB-SEN), evolved line 4
[30] = Acinetobacter baumannii ATCC 17978 (AB-SEN), evolved line 5
[31] = Acinetobacter baumannii ATCC 17978 (AB-SEN), evolved line 6
[32] = Acinetobacter baumannii ATCC 17978 (AB-SEN), evolved line 7
[33] = Acinetobacter baumannii ATCC 17978 (AB-SEN), evolved line 8
[34] = Acinetobacter baumannii ATCC 17978 (AB-SEN), evolved line 9
[35] = Acinetobacter baumannii ATCC 17978 (AB-SEN), evolved line 10
[36] = read-out: MIC of evolved line, Escherichia coli ATCC 25922 (EC-SEN), evolved line 1
[37] = read-out: MIC of evolved line, Escherichia coli ATCC 25922 (EC-SEN), evolved line 2
[38] = read-out: MIC of evolved line, Escherichia coli ATCC 25922 (EC-SEN), evolved line 3

Compound: Nc1nc(-n2cc(C(=O)O)c(=O)c3cc(F)c(N4CC(O)C4)c(Cl)c32)c(F)cc1F [Delafloxacin]
- Relative MIC [1, 4]: 32
- Relative MIC [1, 5]: 64
- Relative MIC [1, 6]: 32
- Relative MIC ([1]; Klebsiella pneumoniae ATCC 700603 (KP-MDR), evolved line 1 versus ancestor): 4
- Relative MIC ([1]; Klebsiella pneumoniae ATCC 700603 (KP-MDR), evolved line 2 versus ancestor): 4
- Relative MIC ([1]; Klebsiella pneumoniae ATCC 700603 (KP-MDR), evolved line 3 versus ancestor): 4
- MIC [1, 7]: 0.0625 mg/L
- MIC [1, 8]: 0.125 mg/L
- MIC [1, 9]: 0.0625 mg/L
- MIC [1, 10]: 4 mg/L
- MIC [1, 11]: 4 mg/L
- MIC [1, 12]: 4 mg/L
- Relative MIC [2, 13]: 256
- Relative MIC [2, 14]: 128
- Relative MIC [2, 15]: 256
- Relative MIC [2, 16]: 256
- Relative MIC [2, 17]: 512
- Relative MIC [2, 18]: 256
- Relative MIC [2, 19]: 128
- Relative MIC [2, 20]: 64
- Relative MIC [2, 21]: 128
- Relative MIC [2, 22]: 128
- Relative MIC (log10) [2, 23]: 2.107
- Relative MIC (log10) [2, 24]: 2.408
- Relative MIC (log10) [2, 25]: 2.709
- Relative MIC (log10) ([2]; evolved line 6 adapted to the named antibiotic): 2.408
- Relative MIC (log10) ([2]; evolved line 9 adapted to the named antibiotic): 2.107
- Relative MIC [2, 26]: 256
- Relative MIC [2, 27]: 128
- Relative MIC [2, 28]: 256
- Relative MIC [2, 29]: 256
- Relative MIC [2, 30]: 512
- Relative MIC [2, 31]: 256
- Relative MIC [2, 32]: 128
- Relative MIC [2, 33]: 64
- Relative MIC [2, 34]: 128
- Relative MIC [2, 35]: 128
- Relative MIC ([3]; evolved line 1 versus ancestor): 1
- Relative MIC ([3]; evolved line 2 versus ancestor): 1
- Relative MIC ([3]; evolved line 3 versus ancestor): 1

Compound: C[C@H]1c2cccc(O)c2C(=O)C2=C(O)[C@]3(O)C(=O)C(C(N)=O)=C(O)[C@@H](N(C)C)[C@@H]3[C@@H](O)[C@@H]21 [Doxycycline]
- Relative MIC [1, 4]: 4
- Relative MIC [1, 5]: 4
- Relative MIC [1, 6]: 2
- MIC [1, 7]: 1 mg/L
- MIC [1, 8]: 1 mg/L
- MIC [1, 9]: 0.5 mg/L
- Relative MIC [2, 13]: 32
- Relative MIC [2, 14]: 64
- Relative MIC [2, 15]: 16
- Relative MIC [2, 16]: 32
- Relative MIC [2, 17]: 32
- Relative MIC [2, 18]: 16
- Relative MIC [2, 19]: 32
- Relative MIC [2, 20]: 32
- Relative MIC [2, 21]: 16
- Relative MIC [2, 22]: 16
- Relative MIC (log10) [2, 23]: 1.806
- Relative MIC (log10) [2, 24]: 1.505
- Relative MIC (log10) [2, 25]: 1.505
- Relative MIC (log10) ([2]; evolved line 7 adapted to the named antibiotic): 1.505
- Relative MIC (log10) ([2]; evolved line 8 adapted to the named antibiotic): 1.505
- Relative MIC [2, 26]: 32
- Relative MIC [2, 27]: 64
- Relative MIC [2, 28]: 16
- Relative MIC [2, 29]: 32
- Relative MIC [2, 30]: 32
- Relative MIC [2, 31]: 16
- Relative MIC [2, 32]: 32
- Relative MIC [2, 33]: 32
- Relative MIC [2, 34]: 16
- Relative MIC [2, 35]: 16
- Relative MIC ([3]; evolved line 1 versus ancestor): 2
- Relative MIC ([3]; evolved line 2 versus ancestor): 4
- Relative MIC ([3]; evolved line 3 versus ancestor): 2
- MIC [3, 36]: 2 mg/L
- MIC [3, 37]: 4 mg/L
- MIC [3, 38]: 2 mg/L

Compound: C[C@@H](O)[C@H]1C(=O)N2C(C(=O)O)=C(S[C@@H]3CN[C@H](C(=O)N(C)C)C3)[C@H](C)[C@H]12 [Meropenem]
- MIC [1, 7]: 0.0156 mg/L
- MIC [1, 8]: 0.0156 mg/L
- MIC [1, 9]: 0.0156 mg/L
- MIC [1, 10]: 2 mg/L
- MIC [1, 11]: 0.0625 mg/L
- MIC [1, 12]: 1 mg/L
- MIC ([3]; read-out: MIC of evolved line, E. coli NCTC 13846 (EC-MDR), evolved line 2): 0.0156 mg/L
- MIC [3, 36]: 0.0156 mg/L
- MIC [3, 37]: 0.0156 mg/L
- MIC [3, 38]: 0.0156 mg/L

Compound: C[C@@H]1CN2c3c(cc4c(N5C(=O)OC[C@@H]5C)noc4c3F)CC3(C(=O)NC(=O)NC3=O)[C@H]2[C@H](C)O1 [Zoliflodacin]
- Relative MIC [1, 4]: 32
- Relative MIC [1, 5]: 128
- Relative MIC [1, 6]: 128
- MIC [1, 7]: 4 mg/L
- MIC [1, 8]: 16 mg/L
- MIC [1, 9]: 16 mg/L
- Relative MIC ([3]; evolved line 1 versus ancestor): 8
- Relative MIC ([3]; evolved line 2 versus ancestor): 8
- Relative MIC ([3]; evolved line 3 versus ancestor): 8
- MIC [3, 37]: 16 mg/L

Compound: Tridecaptin M152-P3
- MIC of evolved line ([1]; Klebsiella pneumoniae ATCC 10031 (KP-SEN), evolved line 1): 16 mg/L
- MIC of evolved line ([1]; Klebsiella pneumoniae ATCC 10031 (KP-SEN), evolved line 2): 8 mg/L
- MIC of evolved line ([1]; Klebsiella pneumoniae ATCC 10031 (KP-SEN), evolved line 3): 16 mg/L
- MIC of evolved line ([3]; evolved line 1): 4 mg/L
- MIC of evolved line ([3]; evolved line 2): 4 mg/L
- MIC of evolved line ([3]; evolved line 3): 4 mg/L
